The data set can be described thus: In vitro human cadaver nail flux study (modified Franz permeation cells). Type of data set: in vitro ADME. The method, then:
The general methods for determining the in vitro nail flux are known in the art. See, for example, U.S. Pat. No. 5,696,164, and references cited therein.
In vitro human cadaver nail flux studies were conducted using modified Franz non-Jacketed permeation cells. The temperature of the nail surface was maintained at 32° C. by placing the cells in a circulating water bath positioned over a stirring module. Human fingernails or toenails were stored under frozen conditions in 0.02% (w/v) sodium azide solution or selected receiver medium. Nails that were greater than 1 cm^2 in area were used for the flux studies. Nails with dorsal side facing the donor compartment were sandwiched between two layers of a closed cell polyethylene foam film. Annular ring of 2.38 cm outer diameter and […] was cut from the backinig film. The area of the donut hole (0.97 cm^2) is large enough to provide complete contact with the receiver media. The purpose of the foam backing film was to prevent any leakage of receiver medium from the cell assembly. The nails were allowed to hydrate at 32° C. overnight with 0.02% (w/v) sodium azide solution in the receiver compartment.
The following morning, nail lacquer sufficient to cover the nail surface was placed onto the dorsal side of the nail. Alternatively, a fixed amount of the lacquer can also be used. Each nail was then loaded between the donor and receiver compartments of a diffusion cell, with the ventral side of nail facing the receiver compartment, and clamped in place. The duration of nail flux and retention study varied from 3 days to 3 weeks. At predetermined sampling intervals, the entire contents of the receiver compartment were collected for drug quantitation and the receiver compartment was filled with fresh receiver solution, taking care to eliminate any air bubbles at the skin/solution interface.
The cumulative amount of drug permeated per unit area at any time t (Qt, μg/cm^2) was determined as follows: [formula] […]

With `CCCCCCCCCCCC(=O)N(CCO)CCO` [L-DEA, Lauramide Diethanolamine (DEA)], where the note is “Examples II and III, 5% enhancer in Gantrez ES-335/FLC versus formulation without enhancer”, the “increase in flux rate” value is recorded as “about 40%”.

Turning to `OC(Cn1cncn1)(Cn1cncn1)c1ccc(F)cc1F` [fluconazole, Fluconazole], for the setting “Example I, using 3-5% triacetin versus formulation without enhancer”, the “enhancement of nail flux of fluconazole” value is “about 100%”. For the same molecule, for the setting “Example V, pretreatment with an N-methyl-pyrrolidone composition versus control solution”, the “increase in flux rate of fluconazole by pretreatment” value is recorded as “about 70%”.

These data come from patent US6585963B1, “Nail compositions and methods of administering same” (Watson Pharmaceuticals, Inc., priority 2001, dated 2003).
